Measured values published in the supplement of paper PMC10307832.

Columns and labels:
Test in all cases: relative viability (nuclei count vs DMSO), 5 days (fraction); higher = more cells survive
[1] = compound: CC[C@H](CO)Nc1nc(NCc2ccccc2)c2ncn(C(C)C)c2n1 [Seliciclib] + CC(=O)c1c(C)c2cnc(Nc3ccc(N4CCNCC4)cn3)nc2n(C2CCCC2)c1=O [Palbociclib] (partner 0.5 µM)
Summary of the method: (§1)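 For relative viability, nuclei counts in treated wells were divided by those in vehicle wells. Lung cancer cell lines had been pin-tool dosed in 1536-well plates the day after seeding and cultured for 5 days, then fixed and stained in one step (final 0.05% Triton X-100, 1% formaldehyde, 1 ug/ml Hoechst) and imaged at 4×. Doses were one drug alone or a fixed anchor-drug dose plus five library-drug doses (not always all listed) in √10 steps, and values are duplicate-plate medians.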

[2] = compound: CC[C@H](CO)Nc1nc(NCc2ccccc2)c2ncn(C(C)C)c2n1 [Seliciclib] + COc1cc2c(Oc3ccc(NC(=O)C4(C(=O)Nc5ccc(F)cc5)CC4)cc3F)ccnc2cc1OCCCN1CCOCC1 [Foretinib] (partner 0.25 µM)
Summary of the method: as §1

[3] = compound: CC[C@H](CO)Nc1nc(NCc2ccccc2)c2ncn(C(C)C)c2n1 [Seliciclib] + CC(C)C[C@H](NC(=O)[C@H](Cc1ccccc1)NC(=O)c1cnccn1)B(O)O [Bortezomib] (partner 0.002 µM)
Summary of the method: as §1

[4] = compound: CC[C@H](CO)Nc1nc(NCc2ccccc2)c2ncn(C(C)C)c2n1 [Seliciclib] + CS(=O)(=O)N1CCN(Cc2cc3nc(-c4cccc5[nH]ncc45)nc(N4CCOCC4)c3s2)CC1 [Pictilisib] (partner 1 µM)
Summary of the method: as §1

Cell Line	relative viability ([1]; first compound 0.08 µM)	relative viability ([1]; first compound 0.253 µM)	relative viability ([1]; first compound 0.8 µM)	relative viability ([1]; first compound 2.53 µM)	relative viability ([1]; first compound 8 µM)	relative viability ([2]; first compound 0.08 µM)	relative viability ([2]; first compound 0.253 µM)	relative viability ([2]; first compound 0.8 µM)	relative viability ([2]; first compound 8 µM)	relative viability ([3]; first compound 0.08 µM)	relative viability ([3]; first compound 0.253 µM)	relative viability ([3]; first compound 0.8 µM)	relative viability ([3]; first compound 2.53 µM)	relative viability ([3]; first compound 8 µM)	relative viability ([4]; first compound 0.08 µM)	relative viability ([4]; first compound 0.253 µM)	relative viability ([4]; first compound 0.8 µM)	relative viability ([4]; first compound 2.53 µM)	relative viability ([4]; first compound 8 µM)	relative viability ([2]; first compound 2.53 µM)
201T	0.329	0.349	0.353	0.327	0.277	0.915	1.13	1.07	1.04	1.12	1.18	1.07	1.1	1.01	0.712	0.693	0.676	0.656	0.626	
A-427	0.488	0.55	0.504	0.468	0.427	1.06	1.11	0.944	1.17	0.975	0.944	1.04	0.925	0.916	0.753	0.737	0.646	0.688	0.695	1.28
ABC-1	0.673	0.565	0.863		0.562	1.04	0.987	1.17	1.2	0.318	0.312	0.296	0.274	0.339	0.773	0.927	0.619	0.42	0.424	1.02
BEN	0.476	0.469	0.473	0.499	0.453	0.615	0.576	0.746	0.592	0.871		0.82	0.701	0.659	0.596		0.549	0.675	0.545	0.621
CAL-12T	0.524	0.469	0.354	0.226	0.207	1.16	1.48	1.26	0.731	0.936	1.36	0.888	0.785	0.567	0.304	0.566	0.39	0.303	0.221	1.21
COR-L23	0.298	0.315	0.262	0.19	0.165	0.928	1.22	0.981	0.738	1.01	1.1	0.962	1.06	0.751	0.63	0.782	0.86	0.584	0.49	0.99
COR-L 105	0.432	0.392	0.276	0.365	0.397	1.11	0.8	1.02	1.02	0.876	0.961	0.676	0.535	0.774	0.379	0.379	0.371	0.32	0.36	1.18
Calu-6						0.847	0.686	0.945	0.733	0.969	0.938	1.12	1.01	0.989	0.93	0.969	0.937	0.917	0.759	0.892
ChaGo-K-1	0.915	0.957	0.755	0.875	0.805	0.877	0.862	0.892	0.823	0.914	0.517	0.947	0.83	0.454	0.766	0.533	0.638	0.513	0.378	0.979
